In patent US20260364186A1, “Chemical Conjugates, Compositions, and Methods of Preparation and Use Thereof” (Transfection Holdings Limited, priority 2022, published 2026):
Entries after “also recorded” stand apart in the source; their conditions may differ.

Key:
Format in all cases: cell-based, human
[1] = system: NZM40 (NRAS Q16H) melanoma cells; assay: FACS uptake of BODIPY FL conjugates, 200 nM, 5 min (Example 2)
Experimental: FIG. 2. Conjugate compounds coupled to BODIPY FL were tested for uptake using 200 nM each conjugate and 5 minute incubation with melanoma cell line NZM11 (BRAF V600E mutant metastatic melanoma), melanoma cell line NZM40 (NRAS Q16H mutant metastatic melanoma) and melanoma cell line NZM9 (BRAF and NRAS wildtype metastatic melanoma). Mean fluorescent intensities (MFI). 2,000 cells (NZM11), 1,000 cells (NZM40) and 500-1,000 cells (NZM9). Cells were sorted by FACS. Bars represent mean±SD. Results were from a single experiment done in triplicate.
NZM40 is an adherent cell line which was originally derived from a metastatic melanoma from a patient, in 2004. This human metastatic melanoma is identified with code CBA-1381 from Cell bank Australia. […] Ras is a superfamily of proteins implicated in cell growth, survival and differentiation. NRAS (neuroblastoma rat sarcoma) was the first oncogene recognized in melanoma and mutations in NRAS account for 20% of all melanomas. NRAS mutations primarily occur at position 61 and involve amino acid change from glutamine (Q) to arginine (R), lysine (K), leucine (L) or histidine (H). These mutations block NRAS into a GTP-bound state damaging its GTPase activity (FIG. 1). Patients are usually older (>55 years) with previous UV exposure. See Garcia-Alverez et al., 2021.
For screening, NZM11, NZM40 and NZM9 cells were suspended at […] dispensed into 96 well plates and left to settle for 48 hours. Then, 10 μL of 10 mM stock solutions in DMSO for the conjugates were diluted with HBSS to afford 400 nM solution. Next, 400 nM compounds and DMSO solutions were diluted 1:1 with MEMα media to afford 200 nM solutions. After 48 hours the media was removed from the 96 well plates and 200 μL of 200 nM conjugates solutions dispensed to each well (in triplicate) and incubated for 5 minutes at 37 °C. After 5 minutes, the media was removed and cells washed with PBS. Then, 100 μL of TrypLE trypsin (ThermoFisher Scientific) were added to each well and incubated for 5 minutes at 37 °C after which, 100 μL of MEMα media were added and samples were sorted through FACS biosort. The FACS results output were represented as the mean of the fluorescence intensities (in arbitrary units) measured for cells sorted in every sample.

Jurkat cells = assay: FACS uptake of BODIPY FL conjugates in Jurkat cells (Example 3); details: 200 nM
Experimental: FIG. 3B: Conjugate compounds coupled to BODIPY FL were tested for uptake using 200 nM each conjugate and 5 minute incubation with immortalized T lymphocyte cell line, Jurkat cells. Mean fluorescent intensities (MFI). 1,000 cells sorted by FACS. Bars represent mean±SD. Results represent a single experiment done in duplicate.
Materials and methods: Jurkat cells have been previously shown to be defective in the expression of two lipid phosphatases, PTEN (phosphatase and tensin homologue) and SHIP (SH2-domain-containing inositol polyphosphate 5′ phosphatase). The biological implications of SHIP deficiency in T cells remain under evaluation, but the loss of PTEN leads to activation of the phosphatidylinositol 3-kinase (PI3K)-signalling pathway. See Abraham and Weiss, 2004. This activation of PI3K protein is also on NZM40 melanoma cell line, and represents a key mutation for its sustained proliferation. See Silva et al., 2017. For these experiments, Jurkat cells were diluted on RPMI media (supplemented with 10% FBS+1% penicillin-streptomycin) to afford 400 cells/μL. 2 μL of 100 μM stock solutions in DMSO from 138 and pantothenic acid/pantothenic acid derivatives coupled to BODIPY were diluted with 998 μL of RPMI media (supplemented with 10% FBS+1% penicillin-streptomycin) to afford 200 nM solution. 100,000 cells were dispensed to Eppendorf tubes, centrifuged for 1.5 min at 5000 rcf and the supernatant was removed. The cells then were incubated with 500 μL of solutions at 200 nM for 4.5 min and 37 °C. After the incubation time, cells were centrifuged for 1.5 minutes at 5000 rcf. Supernatant was removed and cell pellet re-suspended in 200 μL fresh RPMI media, transferred to 96 well-plate and run on FACS machine, approximately 1,000 cells analysed.

[2] = system: NZM11 (BRAF V600E) melanoma cells; assay: Time course of uptake by FACS (Example 5); details: 200 nM; for uptake / intensities, in words: NZM11, time course
Experimental: FIG. 5A: Time course of uptake for 124, 125, 131, 132 conjugate compounds. Tests were performed using 200 nM each conjugate and 5, 30, or 60 minute incubation with melanoma cell line NZM11 (BRAF V600E mutant metastatic melanoma). Mean fluorescent intensities (MFI), n=300 mean±SD. The cells were sorted by FACS.
FIG. 5B: Time course of uptake for 124 and 3-azido BODIPY FL. Tests were performed using 200 nM each compound and 1 or 3 hour incubation with melanoma cell line NZM11 (BRAF V600E mutant metastatic melanoma). Mean fluorescent intensities (MFI). n=2000-3000 mean±SD. The cells were sorted by FACS.
Materials and methods: NZM11 cells were suspended at […] dispensed into 96 well plates and left to settle for 48 hours. 10 μL of 10 mM stock solutions in DMSO from the conjugates coupled to BODIPY were diluted with HBSS to afford 400 nM solution. Then, 400 nM compounds and DMSO solutions were diluted 1:1 with MEMα media to afford 200 nM solutions. After 48 hours the media was removed from the 96 well plates and 200 μL of 200 nM conjugates solutions dispensed to each well (in duplicate) and incubated for 5 minutes, 30 minutes and 60 minutes at 37 °C (for the first test) or 60 minutes and 3 hours (for the second test). After indicated incubation time, the media was removed and cells washed with PBS. 100 μL of TrypLE trypsin (ThermoFisher Scientific) were added to each well and incubated for 6.5 minutes at 37 °C after which, 100 μL of MEMα media were added and samples were sorted through FACS biosort. FACS results output represented the mean of the fluorescence intensities (in arbitrary units) measured for cells sorted in every sample. Uptake rate was calculated by the equation: Uptake rate=(MFI2−MFI1)/(T2−T1)
whereby: MFI=mean fluorescent intensities; T=time (at which time the sample was taken); Uptake rate units: fluorescence intensities units per minute.

Compound | uptake (fluorescence intensities) [1] | uptake / targeting (Jurkat cells) | uptake / intensities, in words [2] | time at which highest intensities were reached ([2]; NZM11) [min] | times lower uptake rate, as compared to 124 ([2]; NZM11) [times] | higher fluorescence intensities compared to enantiomer 126 [1] [times] | intensities compared to 125 and 127 (Jurkat cells; vs 125 and 127) | lower intensities at 3 hour than 60 minute incubation ([2]; NZM11) [%] | time after which uptake presents saturation ([2]; NZM11) [min] | uptake rate ([2]; after five minutes) [units per minute] | uptake rate ([2]; at 30 minutes) [units per minute] | uptake rate ([2]; at 60 minutes) [units per minute]
CC1=CC(C)=[N+]2C1=Cc1ccc(CCCn3cc(CCNC(=O)/C=C\NC(=O)[C@H]4OC(C)(C)OCC4(C)C)nn3)n1[B-]2(F)F [Compound 131, (Z)—N-((((3-[4,4-Difluoro-5,7-dimethyl-4-bora-3a,4a-diaza-s-indacene-3-yl]propyl)-1H-1,2,3-triazol-4-yl)ethylamino)-3-oxoprop-1-enyl)-2,2,5,5-tetramethyl-1,3-dioxane-4-carboxamide] | showed selectivity | showed targeting | non-significant intensities |  |  |  |  |  |  |  |  | 
CC1=CC(C)=[N+]2C1=Cc1ccc(CCCn3cc(CCNC(=O)/C=C/NC(=O)[C@@H]4OC(C)(C)OCC4(C)C)nn3)n1[B-]2(F)F [Compound 125, (R,E)-N-((((3-[4,4-difluoro-5,7-dimethyl-4-bora-3a,4a-diaza-s-indacene-3-yl]propyl)-1H-1,2,3-triazol-4-yl)eth-ylamino)-3-oxoprop-1-enyl)-2,2,5,5-tetramethyl-1,3-dioxane-4-carboxamide] | selective uptake; also recorded: significant uptake | showed targeting |  | 60 | 7 |  |  |  |  |  |  | 
CC1=CC(C)=[N+]2C1=Cc1ccc(CCCn3cc(CCNC(=O)/C=C/NC(=O)[C@H](O)C(C)(C)CO)nn3)n1[B-]2(F)F [Compound 124] | highest intensities; also recorded: best targeting activity | highest uptake | outstanding uptake; also recorded: rapid at the first minutes of incubation | 60 |  | 13 | two times higher | 4 | 60 | 45 | 23 | 1
